Reference: US8791108B2, “Inhibitors of human immunodeficiency virus replication” (priority 2011, dated 2014)
Like-named read-outs stand apart in the source and are kept apart here.

Test system: recombinant NL-Rluc virus
Assay: Inhibition of HIV replication (NL-RLuc luciferase reporter virus, MT-2 cells)
Type: cell-based
Details: Human immunodeficiency virus 1, MT2, 120 h

SMILES	EC50 (read-out: Activity) [µM]	EC50 (read-out: EC50 μM) [µM]
Cc1nc2cc(C(=O)NCc3ccc(F)cc3N3CCCC3=O)nn2c(-c2cc(F)c3c(c2C)CCCO3)c1[C@H](OC(C)(C)C)C(=O)O [Example 12, (2S)-2-(tert-butoxy)-2-(2-((4-fluoro-2-(2-oxopyrrolidin-1-yl)benzyl)carbamoyl)-7-(8-fluoro-5-methylchroman-6-yl)-5-methylpyrazolo[1,5-a]pyrimidin-6-yl)acetic acid]	> 1	–
Cc1nc2cc(C(=O)NCc3cccc(Cl)c3Cl)nn2c(-c2cc(F)c3c(c2C)CCCO3)c1[C@H](OC(C)(C)C)C(=O)O [Example 117, (2S)-2-(tert-butoxy)-2-(2-((2,3-dichlorobenzyl)carbamoyl)-7-(8-fluoro-5-methylchroman-6-yl)-5-methylpyrazolo[1,5-a]pyrimidin-6-yl)acetic acid]	< 0.1	–
Cc1nc2cc(C(=O)NCc3ccc(F)cc3S(C)(=O)=O)nn2c(-c2cc(F)c3c(c2C)CCCO3)c1[C@H](OC(C)(C)C)C(=O)O [Example 28, (2S)-2-(tert-butoxy)-2-(2-((4-fluoro-2-(methylsulfonyl)benzyl)carbamoyl)-7-(8-fluoro-5-methylchroman-6-yl)-5-methylpyrazolo[1,5-a]pyrimidin-6-yl)acetic acid]	0.1 to 1	–
Cc1nc2cc(C(=O)NCCC3CCN(Cc4ccccc4)CC3)nn2c(-c2cc(F)c3c(c2C)CCCO3)c1[C@H](OC(C)(C)C)C(=O)O [Example 72, (2S)-2-(2-((2-(1-benzylpiperidin-4-yl)ethyl)carbamoyl)-7-(8-fluoro-5-methylchroman-6-yl)-5-methylpyrazolo[1,5-a]pyrimidin-6-yl)-2-(tert-butoxy)acetic acid]	0.1 to 1	0.668
Cc1nc2cc(C(=O)N3CCN(Cc4ccc5c(c4)OCO5)CC3)nn2c(-c2cc(F)c3c(c2C)CCCO3)c1[C@H](OC(C)(C)C)C(=O)O [Example 92, (2S)-2-(2-(4-(benzo[d][1,3]dioxol-5-ylmethyl)piperazine-1-carbonyl)-7-(8-fluoro-5-methylchroman-6-yl)-5-methylpyrazolo[1,5-a]pyrimidin-6-yl)-2-(tert-butoxy)acetic acid]	0.1 to 1	–
Cc1nc2cc(C(=O)NCC3CC3)nn2c(-c2cc(F)c3c(c2C)CCCO3)c1[C@H](OC(C)(C)C)C(=O)O [Example 43, (2S)-2-(tert-butoxy)-2-(2-((cyclopropylmethyl)carbamoyl)-7-(8-fluoro-5-methylchroman-6-yl)-5-methylpyrazolo[1,5-a]pyrimidin-6-yl)acetic acid]	0.1 to 1	–
Cc1nc2cc(C(=O)NCCC(C)(C)C)nn2c(-c2cc(F)c3c(c2C)CCCO3)c1[C@H](OC(C)(C)C)C(=O)O [Example 62, (2S)-2-(tert-butoxy)-2-(2-((3,3-dimethylbutyl)carbamoyl)-7-(8-fluoro-5-methylchroman-6-yl)-5-methylpyrazolo[1,5-a]pyrimidin-6-yl)acetic acid]	< 0.1	0.013
Cc1nc2cc(C(=O)NCCN3CCCC3)nn2c(-c2cc(F)c3c(c2C)CCCO3)c1[C@H](OC(C)(C)C)C(=O)O [Example 75, (2S)-2-(tert-butoxy)-2-(7-(8-fluoro-5-methylchroman-6-yl)-5-methyl-2-((2-(pyrrolidin-1-yl)ethyl)carbamoyl)pyrazolo[1,5-a]pyrimidin-6-yl)acetic acid]	> 1	–
Cc1nc2cc(C(=O)NCCC(C)(C)C)nn2c(-c2ccc3c(c2Cl)NCCO3)c1[C@H](OC(C)(C)C)C(=O)O [Example 144, (2S)-2-(tert-Butoxy)-2-(7-(5-chloro-3,4-dihydro-2H-benzo[b][1,4]oxazin-6-yl)-2-((3,3-dimethylbutyl)carbamoyl)-5-methylpyrazolo[1,5-a]pyrimidin-6-yl)acetic acid]	0.1 to 1	0.122
Cc1nc2cc(C(=O)N(C)Cc3ccc(Cl)c(Cl)c3)nn2c(-c2cc(F)c3c(c2C)CCCO3)c1[C@H](OC(C)(C)C)C(=O)O [Example 115, (2S)-2-(tert-butoxy)-2-(2-((3,4-dichlorobenzyl)(methyl)carbamoyl)-7-(8-fluoro-5-methylchroman-6-yl)-5-methylpyrazolo[1,5-a]pyrimidin-6-yl)acetic acid]	< 0.1	–
Cc1nc2cc(C(=O)NCc3cccc(-c4ccccc4)c3)nn2c(-c2cc(F)c3c(c2C)CCCO3)c1[C@H](OC(C)(C)C)C(=O)O [Example 69, (2S)-2-(2-(([1,1′-biphenyl]-3-ylmethyl)carbamoyl)-7-(8-fluoro-5-methylchroman-6-yl)-5-methylpyrazolo[1,5-a]pyrimidin-6-yl)-2-(tert-butoxy)acetic acid]	< 0.1	–
Cc1nc2cc(C(=O)NCc3cccc(C(F)(F)F)c3)nn2c(-c2cc(F)c3c(c2C)CCCO3)c1[C@H](OC(C)(C)C)C(=O)O [Example 64]	< 0.1	–
Cc1ccc(CNC(=O)c2cc3nc(C)c([C@H](OC(C)(C)C)C(=O)O)c(-c4cc(F)c5c(c4C)CCCO5)n3n2)cc1F [Example 60, (2S)-2-(tert-butoxy)-2-(2-((3-fluoro-4-methylbenzyl)carbamoyl)-7-(8-fluoro-5-methylchroman-6-yl)-5-methylpyrazolo[1,5-a]pyrimidin-6-yl)acetic acid]	< 0.1	–
Cc1ccc(CNC(=O)c2cc3nc(C)c([C@H](OC(C)(C)C)C(=O)O)c(-c4cc(F)c5c(c4C)CCCO5)n3n2)cc1 [Example 5, (2S)-2-(tert-butoxy)-2-(7-(8-fluoro-5-methylchroman-6-yl)-5-methyl-2-((4-methylbenzyl)carbamoyl)pyrazolo[1,5-a]pyrimidin-6-yl)acetic acid]	< 0.1	–
Cc1nc2cc(C(=O)NCCC(C)(C)C)nn2c(N2CCC(C)(C)CC2)c1[C@H](OC(C)(C)C)C(=O)O [Example 152, (S)-2-(tert-Butoxy)-2-(2-((3,3-dimethylbutyl)carbamoyl)-7-(4,4-dimethylpiperidin-1-yl)-5-methylpyrazolo[1,5-a]pyrimidin-6-yl)acetic acid]	< 0.1	0.03
Cc1nc2cc(C(=O)N(C)Cc3ccccc3F)nn2c(-c2cc(F)c3c(c2C)CCCO3)c1[C@H](OC(C)(C)C)C(=O)O [Example 22, (2S)-2-(tert-butoxy)-2-(7-(8-fluoro-5-methylchroman-6-yl)-2-((2-fluorobenzyl)(methyl)carbamoyl)-5-methylpyrazolo[1,5-a]pyrimidin-6-yl)acetic acid]	< 0.1	–
Cc1cc(CNC(=O)c2cc3nc(C)c([C@H](OC(C)(C)C)C(=O)O)c(C4=CCC(C)(C)CC4)n3n2)ccc1F [Example 147, (S)-2-(tert-butoxy)-2-(7-(4,4-dimethylcyclohex-1-en-1-yl)-2-((4-fluoro-3-methylbenzyl)carbamoyl)-5-methylpyrazolo[1,5-a]pyrimidin-6-yl)acetic acid]	< 0.1	–
Cc1nc2cc(C(=O)Nc3ccc(C4CCCCC4)cc3)nn2c(-c2cc(F)c3c(c2C)CCCO3)c1[C@H](OC(C)(C)C)C(=O)O [Example 73, (2S)-2-(tert-butoxy)-2-(2-((4-cyclohexylphenyl)carbamoyl)-7-(8-fluoro-5-methylchroman-6-yl)-5-methylpyrazolo[1,5-a]pyrimidin-6-yl)acetic acid]	< 0.1	–
Cc1nc2cc(C(=O)NCCC3CCOCC3)nn2c(-c2cc(F)c3c(c2C)CCCO3)c1[C@H](OC(C)(C)C)C(=O)O [Example 129, (2S)-2-(tert-butoxy)-2-(7-(8-fluoro-5-methylchroman-6-yl)-5-methyl-2-((2-(tetrahydro-2H-pyran-4-yl)ethyl)carbamoyl)pyrazolo[1,5-a]pyrimidin-6-yl)acetic acid]	0.1 to 1	–
CCN1CCN(C(=O)c2cc3nc(C)c([C@H](OC(C)(C)C)C(=O)O)c(-c4cc(F)c5c(c4C)CCCO5)n3n2)CC1 [Example 83, (2S)-2-(tert-butoxy)-2-(2-(4-ethylpiperazine-1-carbonyl)-7-(8-fluoro-5-methylchroman-6-yl)-5-methylpyrazolo[1,5-a]pyrimidin-6-yl)acetic acid]	> 1	–
Cc1cc(CNC(=O)c2nn3c(-c4cc(F)c5c(c4C)CCCO5)c([C@H](OC(C)(C)C)C(=O)O)c(C)nc3c2F)ccc1F [Example 139, (2S)-2-(tert-Butoxy)-2-(3-fluoro-2-((4-fluoro-3-methylbenzyl)carbamoyl)-7-(8-fluoro-5-methylchroman-6-yl)-5-methylpyrazolo[1,5-a]pyrimidin-6-yl)acetic acid]	< 0.1	–
Cc1nc2cc(C(=O)NCc3ccc(N(C)C)cc3)nn2c(-c2cc(F)c3c(c2C)CCCO3)c1[C@H](OC(C)(C)C)C(=O)O [Example 52, (2S)-2-(tert-butoxy)-2-(2-((4-(dimethylamino)benzyl)carbamoyl)-7-(8-fluoro-5-methylchroman-6-yl)-5-methylpyrazolo[1,5-a]pyrimidin-6-yl)acetic acid]	< 0.1	–
CCCNC(=O)c1cc2nc(C)c([C@H](OC(C)(C)C)C(=O)O)c(-c3cc(F)c4c(c3C)CCCO4)n2n1 [Example 124, (2S)-2-(tert-butoxy)-2-(7-(8-fluoro-5-methylchroman-6-yl)-5-methyl-2-(propylcarbamoyl)pyrazolo[1,5-a]pyrimidin-6-yl)acetic acid]	0.1 to 1	–
Cc1nc2cc(C(=O)NCc3ccc(C#N)cc3)nn2c(-c2cc(F)c3c(c2C)CCCO3)c1[C@H](OC(C)(C)C)C(=O)O [Example 121, (2S)-2-(tert-butoxy)-2-(2-((4-cyanobenzyl)carbamoyl)-7-(8-fluoro-5-methylchroman-6-yl)-5-methylpyrazolo[1,5-a]pyrimidin-6-yl)acetic acid]	0.1 to 1	–
Cc1ccc(NC(=O)c2cc3nc(C)c([C@H](OC(C)(C)C)C(=O)O)c(-c4cc(F)c5c(c4C)CCCO5)n3n2)cc1 [Example 15, (2S)-2-(tert-butoxy)-2-(7-(8-fluoro-5-methylchroman-6-yl)-5-methyl-2-(p-tolylcarbamoyl)pyrazolo[1,5-a]pyrimidin-6-yl)acetic acid]	< 0.1	–
Cc1nc2cc(C(=O)NCCC(C)(C)C)nn2c(C2=CCC(C)(C)CC2)c1[C@H](OC(C)(C)C)C(=O)O [Example 148, (S)-2-(tert-Butoxy)-2-(2-((3,3-dimethylbutyl)carbamoyl)-7-(4,4-dimethylcyclohex-1-en-1-yl)-5-methylpyrazolo[1,5-a]pyrimidin-6-yl)acetic acid]	< 0.1	–
